In ChEMBL document CHEMBL1681667, “Structure-activity relationship studies of sphingosine-1-phosphate receptor agonists with N-cinnamyl-β-alanine moiety” (Bioorg Med Chem Lett, 2011):

Legend:
[1] = biological target: Sphingosine 1-phosphate receptor 5 (Homo sapiens, UniProt Q9H228); assay: Agonist activity at human S1P5 receptor expressed in CHO cells assessed as intracellular calcium levels; assay type: functional, cell-based
[2] = biological target: Sphingosine 1-phosphate receptor 3 (Homo sapiens, UniProt Q99500); assay: Agonist activity at human S1P3 receptor expressed in CHO cells assessed as intracellular calcium levels; assay type: functional, cell-based
Mus musculus = assay: Immunomodulatory activity in po dosed mouse assessed as peripheral blood lymphocyte lowering activity after 4 hrs; assay type: functional
[3] = biological target: Sphingosine 1-phosphate receptor 1 (Homo sapiens, UniProt P21453); assay: Agonist activity at human S1P1 receptor expressed in CHO cells assessed as intracellular calcium levels; assay type: functional, cell-based
[4] = biological target: Sphingosine 1-phosphate receptor 2 (Homo sapiens, UniProt O95136); assay: Agonist activity at human S1P2 receptor expressed in CHO cells assessed as intracellular calcium levels; assay type: functional, cell-based
[5] = Cmax in rat at 30 mg/kg, po; assay type: ADME, organism-based; parameters: dose 30 mg/kg, route oral; details: in vivo
[6] = Half life in rat at 30 mg/kg, po; assay type: ADME, organism-based; parameters: dose 30 mg/kg, route oral; details: in vivo
[7] = AUC (infinity) in rat at 30 mg/kg, po; assay type: ADME, organism-based; parameters: time infinity, dose 30 mg/kg, route oral; details: plasma

Sphingosine 1-phosphate receptor 3, sequence (Q99500 whole entry): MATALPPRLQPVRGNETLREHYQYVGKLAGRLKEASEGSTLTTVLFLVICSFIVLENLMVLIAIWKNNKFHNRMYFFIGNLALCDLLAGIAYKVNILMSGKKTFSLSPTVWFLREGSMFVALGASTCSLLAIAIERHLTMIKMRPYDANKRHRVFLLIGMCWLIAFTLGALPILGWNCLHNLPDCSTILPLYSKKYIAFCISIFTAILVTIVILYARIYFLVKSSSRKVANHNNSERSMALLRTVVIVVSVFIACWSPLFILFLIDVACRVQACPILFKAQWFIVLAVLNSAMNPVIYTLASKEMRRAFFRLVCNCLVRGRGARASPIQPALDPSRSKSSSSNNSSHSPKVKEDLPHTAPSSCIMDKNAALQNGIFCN
Sphingosine 1-phosphate receptor 1, sequence (P21453 whole entry): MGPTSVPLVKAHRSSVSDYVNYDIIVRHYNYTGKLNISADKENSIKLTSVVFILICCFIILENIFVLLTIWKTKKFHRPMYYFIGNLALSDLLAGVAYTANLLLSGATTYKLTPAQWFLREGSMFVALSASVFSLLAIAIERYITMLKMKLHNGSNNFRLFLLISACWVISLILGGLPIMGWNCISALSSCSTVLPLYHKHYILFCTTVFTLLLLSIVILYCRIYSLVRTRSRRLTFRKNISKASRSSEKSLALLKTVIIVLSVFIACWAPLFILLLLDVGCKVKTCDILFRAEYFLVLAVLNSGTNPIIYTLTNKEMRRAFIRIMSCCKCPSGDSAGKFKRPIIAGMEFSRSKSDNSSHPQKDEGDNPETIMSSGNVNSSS
Sphingosine 1-phosphate receptor 5, sequence (Q9H228 whole entry): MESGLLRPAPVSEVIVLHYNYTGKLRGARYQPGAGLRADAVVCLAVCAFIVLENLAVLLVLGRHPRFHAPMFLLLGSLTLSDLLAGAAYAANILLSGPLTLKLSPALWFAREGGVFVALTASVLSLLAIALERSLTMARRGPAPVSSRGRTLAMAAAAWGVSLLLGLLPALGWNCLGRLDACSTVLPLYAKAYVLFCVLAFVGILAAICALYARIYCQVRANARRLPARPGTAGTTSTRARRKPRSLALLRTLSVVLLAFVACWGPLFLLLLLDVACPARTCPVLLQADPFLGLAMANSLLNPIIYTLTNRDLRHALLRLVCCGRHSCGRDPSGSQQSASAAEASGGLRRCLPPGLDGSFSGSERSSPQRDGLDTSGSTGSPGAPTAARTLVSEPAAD
Sphingosine 1-phosphate receptor 2, sequence (O95136 whole entry): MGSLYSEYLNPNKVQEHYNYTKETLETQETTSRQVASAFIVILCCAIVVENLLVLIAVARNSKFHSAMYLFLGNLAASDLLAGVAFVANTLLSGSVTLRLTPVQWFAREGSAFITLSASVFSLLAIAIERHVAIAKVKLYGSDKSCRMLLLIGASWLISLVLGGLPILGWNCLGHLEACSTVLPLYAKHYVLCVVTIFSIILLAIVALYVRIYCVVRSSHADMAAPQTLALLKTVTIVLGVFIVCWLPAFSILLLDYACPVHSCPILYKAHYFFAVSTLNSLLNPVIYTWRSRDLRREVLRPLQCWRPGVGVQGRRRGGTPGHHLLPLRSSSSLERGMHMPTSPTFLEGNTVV

| SMILES | EC50 [1] [µM] | EC50 [2] [µM] | ED50 (Mus musculus) [mg/kg] | EC50 [3] [µM] | EC50 [4] [µM] | Cmax [5] [ng/mL] | half-life [6] [h] | AUC(0-inf) [7] [µg·h/mL] |
| --- | --- | --- | --- | --- | --- | --- | --- | --- |
| O=C(O)CCNCCCc1ccc(OCCCCCc2ccccc2)cc1 | 0.17 | 4.2 | 26 | 0.16 | > 10 | – | – | – |
| O=C(O)CCNCCCc1ccc(OCCCc2ccccc2)cc1 | – | 9 | – | 2.6 | – | 28000 | 3.8 | 174 |
| O=C(O)CCNCCCc1ccc(OCCCCc2ccccc2)cc1 | – | > 10 | – | 1.5 | – | – | – | – |
| O=C(O)CCNCCCc1ccc(OCCCCCCc2ccccc2)cc1 | – | > 10 | – | 2.7 | – | – | – | – |
| O=C(O)CCNC/C=C/c1ccc(OCCCc2ccccc2)cc1 | – | 3.3 | 4.6 | 0.07 | – | – | – | – |
| C/C(=C\c1ccc(OCCCc2ccccc2)cc1)CNCCC(=O)O | – | 1.9 | – | 0.033 | – | – | – | – |
| C/C(=C\CNCCC(=O)O)c1ccc(OCCCc2ccccc2)cc1 | – | > 10 | 0.69 | 0.021 | – | – | 7.4 | – |
| C/C(=C/CNCCC(=O)O)c1ccc(OCCCc2ccccc2)cc1 | – | > 10 | – | 0.93 | – | – | – | – |
| O=C(O)CCN1CC=C(c2ccc(OCCCc3ccccc3)cc2)CC1 | – | 1.2 | 1.4 | 0.045 | – | – | – | – |
| O=C(O)CCN1CCC(c2ccc(OCCCc3ccccc3)cc2)CC1 | – | > 10 | – | 1.6 | – | – | – | – |
| O=C(O)CCN1CCC/C(=C\c2ccc(OCCCc3ccccc3)cc2)C1 | – | > 10 | – | 1.5 | – | – | – | – |
